The test system of one data set is bone marrow. The data set is described as follows: Bone marrow dosimetry, hybrid protocol (HP): sequential abdominal quantitative SPECT scaled with a single whole-body planar image. Type of data set: in vivo, human. On the procedure:
The proposed hybrid protocol (HP) uses a single whole-body image and sequential single-bed quantitative SPECT acquisitions of the abdomen to determine the ROB TAC, instead of deriving the ROB TAC from sequential whole-body planar imaging.
First, the abdominal effective decay constant λSPECT was derived via a mono-exponential fit to the total activity in the SPECT scans 24, 48, and 72 h post-therapy. Especially, all organs and all tumours were included in the fitting of the TAC, as it was the case for the determination of A~WB from the reference protocol. […] The mono-exponential SPECT-based abdominal TAC was then scaled with a chosen base point. This base point is defined via the whole-body activity AWB(t^∗) of a single whole-body planar image acquired at an arbitrary time point t^∗∈ 24, 48, or 72 h post-therapy. The resulting pseudo-whole-body TAC AWB, pseudo(t) is intended to serve as an estimate of the reference-protocol-based whole-body TAC (Eq. (7.1)) and can be further used to determine a pseudo-whole-body time-integrated activity A~WB,pseudo (Eq. (7.2)).
7.1 AWB,pseudot=AWB,pseudot^∗∙exp−λSPECT∙t−t^∗, 7.2 A~WB,pseudo=∫t=0∞AWB,pseudot^′dt^′=AWBt^∗∙expλSPECT∙t^∗/λSPECT=AWBt^∗∙expλSPECT∙t^∗∙T1/2,SPECT/ln2.
Based on the hybrid model given in Eqs. (7.1) and (7.2), the bone marrow absorbed dose from the ROB can be estimated by Eqs. (4.1) and (4.2). In this work, we investigated a combination of the sequential abdominal SPECT with the whole-body planar images at 24, 48, or 72 h p. i., where each whole-body planar image was individually calibrated via the quantitative SPECT at the corresponding time point (Fig. 2). These different hybrid protocols were further denoted as HP24, HP48, and HP72. The agreement of the bone marrow absorbed doses from the ROB, as determined via the HP and the RP, was assessed. Therefore, the percentage deviation between absorbed dose estimates (PDdose; Eq. (8)) was calculated, and a statistical test for correlation was performed (MATLAB Pearson correlation analysis).
Furthermore, the same analysis was performed regarding the total bone marrow absorbed dose estimates composed of all available constituents: the ROB (including tumours), the explicitly analysed organs, and the contribution of the blood activity.

Data set [1] in a line: Blood time-activity curve from venous blood samples (gamma counter, bi-exponential fit). As to conditions: blood samples 30 min, 80 min, 24, 48, 72 h p. i.; median of n = 5 patients per therapy. Type of data set: in vivo, human. The procedure: (§1) Data for dosimetry were acquired during a routine 4-day in-patient stay following the radiopharmaceutical injection, in conjunction with standard clinical examinations. All patients received a 15-min one-bed abdominal SPECT scan and a 20-min whole-body planar scintigraphy at 24, 48, and 72 h post-injection (p. i.) on a dual-headed Symbia T2 SPECT/CT (Siemens Medical Solutions, Erlangen, Germany). Counts were detected for the photopeak window of 208 keV (width 15%) by the usage of a medium-energy low-penetration collimator. Two additional scatter windows were measured at 170 keV (width 15%) and 240 keV (width 10%). A low-dose AC-CT was acquired at the first image acquisition session for anatomical correlation and attenuation correction during quantitative SPECT reconstruction. For the determination of the absorbed dose to the bone marrow from the activity circulating in the blood, five venous blood samples were drawn from the site contralateral to injection at 30 and 80 min p. i. and 24, 48, and 72 h p. i..
[11, 13]. […] To derive the patient-specific blood TAC, 1 ml of blood of each sample was pipetted into a test tube and measured within a Cobra Gamma Counter (Packard Instrument Company, Inc., Meriden, CT), which has been previously calibrated via five 1-ml test samples of known activity concentration. […]

The nature of data set [2]: Abdominal effective half-life from sequential quantitative SPECT (mono-exponential fit). It counts as in vivo. On the procedure: as §1
Quantitative SPECT images were reconstructed as described by Delker et al. via a rotation-based, penalised, one-step-late ordered subset expectation maximisation algorithm, which included corrections for scatter, attenuation, and distance-dependent geometrical collimator blur. Attenuation correction was performed for each SPECT scan via the AC-CT, which was acquired along with the SPECT scan 24 h post-injection. To apply the attenuation correction, especially to the SPECT scans 48 and 72 h p. i., the single AC-CT was co-registered onto an initial SPECT reconstruction without attenuation correction by using a rigid body co-registration algorithm with six degrees of freedom (PMOD Version 3.609, PMOD Technologies, Zurich, Switzerland). If only one AC-CT is acquired for sequential SPECT imaging, special care has to be taken to minimise misregistration between SPECT images and separately acquired CT scans, as such a misalignment can distort the proper attenuation correction and, thus, activity quantification. This is in principal also true for serial SPECT and CT imaging, as even within a single image acquisition session patient movements cannot be entirely avoided. Scatter correction employed the triple energy window (TEW) method. Correction for distance-dependent collimator blur made use of a Gaussian blur model. Corrections for partial volume effects and dead time were not applied. For conversion of the measured counts per second and per voxel to Becquerel per millilitre, an appropriate calibration factor was determined. Therefore, we used a large cylinder of approximately 20 cm diameter, which was filled with a known activity concentration and which has been imaged and reconstructed via the same protocol.
First, the abdominal effective decay constant λSPECT was derived via a mono-exponential fit to the total activity in the SPECT scans 24, 48, and 72 h post-therapy. Especially, all organs and all tumours were included in the fitting of the TAC, as it was the case for the determination of A~WB from the reference protocol. This effective decay constant λSPECT serves as a surrogate for the reference-protocol-based whole-body effective decay constant (Fig. 2). The mono-exponential SPECT-based abdominal TAC was then scaled with a chosen base point. This base point is defined via the whole-body activity AWB(t^∗) of a single whole-body planar image acquired at an arbitrary time point t^∗∈ 24, 48, or 72 h post-therapy. The resulting pseudo-whole-body TAC AWB, pseudo(t) is intended to serve as an estimate of the reference-protocol-based whole-body TAC (Eq. (7.1)) and can be further used to determine a pseudo-whole-body time-integrated activity A~WB,pseudo (Eq. (7.2)).

The mark [3] stands for this setting: mono-exponential fit to total activity in abdominal SPECT 24, 48, 72 h p. i., median of n = 5 patients per therapy.

Molecules are shown by their SMILES.

`C[C@@H](O)[C@H](NC(=O)[C@@H]1CSSC[C@H](NC(=O)[C@@H](Cc2ccccc2)NC(=O)CN2CCN(CC(=O)O)CCN(CC(=O)O)CCN(CC(=O)O)CC2)C(=O)N[C@@H](Cc2ccc(O)cc2)C(=O)N[C@H](Cc2c[nH]c3ccccc23)C(=O)N[C@@H](CCCCN)C(=O)N[C@@H]([C@@H](C)O)C(=O)N1)C(=O)O` [Lu-177-Octreotate, Lu-177-[DOTA^0,Tyr^3]-Octreotate, metal not drawn]: the “DBM ← total HP72, total bone marrow absorbed dose” value in the data set with bone marrow (whole-body planar image 72 h p. i., patient P1 (NET, 7654 MBq)) was found to be 12.1 mGy/GBq. For the same compound, the “effective half-life for the slow phase of the bi-exponential fit to the blood time-activity measurements” value in data set [1] is recorded as 25 h. Besides, the “T1/2, SPECT, SPECT-based abdominal effective half-life” value is 61 h in data set [2] (setting [3]); 53 h in data set [2] (mono-exponential fit, abdominal SPECT 24, 48, 72 h p. i., patient P1 (NET)); 61 h in data set [2] (mono-exponential fit, abdominal SPECT 24, 48, 72 h p. i., patient P2 (NET)); 56 h in data set [2] (mono-exponential fit, abdominal SPECT 24, 48, 72 h p. i., patient P3 (NET)); 73 h in data set [2] (mono-exponential fit, abdominal SPECT 24, 48, 72 h p. i., patient P4 (NET)); 87 h in data set [2] (mono-exponential fit, abdominal SPECT 24, 48, 72 h p. i., patient P5 (NET)).
For the compound `O=C(O)CC[C@H](NC(=O)N[C@@H](CCCCNC(=O)[C@H](Cc1ccc2ccccc2c1)NC(=O)[C@H]1CC[C@H](CNC(=O)CN2CCN(CC(=O)O)CCN(CC(=O)O)CCN(CC(=O)O)CC2)CC1)C(=O)O)C(=O)O` [Lu-177-PSMA-617, Lu-177-DKFZ-PSMA-617, metal not drawn], the “DBM ← total HP24, total bone marrow absorbed dose” value is recorded as 11.3 mGy/GBq in the data set with bone marrow (single whole-body planar image 24 h p. i., median of n = 5 patients per therapy); 11.3 mGy/GBq in the data set with bone marrow (whole-body planar image 24 h p. i., patient P6 (mCRPC, 3718 MBq)); 8.1 mGy/GBq in the data set with bone marrow (whole-body planar image 24 h p. i., patient P7 (mCRPC, 3743 MBq)); 17.1 mGy/GBq in the data set on bone marrow (whole-body planar image 24 h p. i., patient P8 (mCRPC, 3745 MBq)); 13.5 mGy/GBq in the data set on bone marrow (whole-body planar image 24 h p. i., patient P9 (mCRPC, 3752 MBq)); 10.0 mGy/GBq in the data set on bone marrow (whole-body planar image 24 h p. i., patient P10 (mCRPC, 3700 MBq)). The “DBM ← total HP48, total bone marrow absorbed dose” value is reported as 9.6 mGy/GBq in the data set on bone marrow (single whole-body planar image 48 h p. i., median of n = 5 patients per therapy); 9.6 mGy/GBq with bone marrow (whole-body planar image 48 h p. i., patient P6 (mCRPC, 3718 MBq)); 6.7 mGy/GBq in the data set on bone marrow (whole-body planar image 48 h p. i., patient P7 (mCRPC, 3743 MBq)); 17.1 mGy/GBq with bone marrow (whole-body planar image 48 h p. i., patient P8 (mCRPC, 3745 MBq)); 13.6 mGy/GBq with bone marrow (whole-body planar image 48 h p. i., patient P9 (mCRPC, 3752 MBq)); 8.1 mGy/GBq in the data set on bone marrow (whole-body planar image 48 h p. i., patient P10 (mCRPC, 3700 MBq)). In addition, the “DBM ← total HP72, total bone marrow absorbed dose” value in the data set with bone marrow (single whole-body planar image 72 h p. i., median of n = 5 patients per therapy) turned out to be 10.1 mGy/GBq; with bone marrow (whole-body planar image 72 h p. i., patient P6 (mCRPC, 3718 MBq)), 10.1 mGy/GBq; with bone marrow (whole-body planar image 72 h p. i., patient P7 (mCRPC, 3743 MBq)), 7.0 mGy/GBq; in the data set on bone marrow (whole-body planar image 72 h p. i., patient P8 (mCRPC, 3745 MBq)), 16.8 mGy/GBq; with bone marrow (whole-body planar image 72 h p. i., patient P9 (mCRPC, 3752 MBq)), 15.1 mGy/GBq; in the data set with bone marrow (whole-body planar image 72 h p. i., patient P10 (mCRPC, 3700 MBq)) it was 8.5 mGy/GBq. Besides, in data set [1], the “effective half-life for the slow phase of the bi-exponential fit to the blood time-activity measurements” value was found to be 14 h. In addition, the “T1/2, SPECT, SPECT-based abdominal effective half-life” value in data set [2] (setting [3]) was determined as 42 h; in data set [2] (mono-exponential fit, abdominal SPECT 24, 48, 72 h p. i., patient P6 (mCRPC)), 33 h; in data set [2] (mono-exponential fit, abdominal SPECT 24, 48, 72 h p. i., patient P7 (mCRPC)), 50 h; in data set [2] (mono-exponential fit, abdominal SPECT 24, 48, 72 h p. i., patient P8 (mCRPC)), 67 h; in data set [2] (mono-exponential fit, abdominal SPECT 24, 48, 72 h p. i., patient P9 (mCRPC)), 31 h; in data set [2] (mono-exponential fit, abdominal SPECT 24, 48, 72 h p. i., patient P10 (mCRPC)), 42 h.

Values taken from paper PMC6081875 (EJNMMI Research, 2018).
